Nine compounds from patent US11369593B2 (Texas Tech University System, priority 2017, dated 2022) can be followed below.

For orientation: viability means a read-out of living cells in per cent, often relative to untreated cells.

Series [1] concerns PC12 cells. In words: Etoposide-induced apoptosis in PC12 cells, cell viability. The note with it: etoposide-induced apoptosis, PC12 cells; for viability at 1 µM / viability at 3 µM / viability at 10 µM / viability at 30 µM / viability at 0.1 µM / viability at 0.3 µM: Rattus norvegicus, PC-12; for viability at 1 µM / % Viability 1 μM: 1 μM compound; for viability at 1 µM: read-out: % Viability 1 μM; for viability at 3 µM / % Viability 3 μM: 3 μM compound; for viability at 3 µM: read-out: % Viability 3 μM; for viability at 10 µM / % Viability 10 μM: 10 μM compound; for viability at 10 µM: read-out: % Viability 10 μM; for viability at 30 µM / % Viability 30 μM: 30 μM compound; for viability at 30 µM: read-out: % Viability 30 μM; for viability at 0.1 µM / % Viability 0.1 μM: 0.1 μM compound, vehicle 52.1 ± 7.32; for viability at 0.3 µM / % Viability 0.3 μM: 0.3 μM compound. The format is cell-based.

In series [2] the test system is PC12 cells. In words: Serum starvation-induced apoptosis in PC12 cells, cell viability. The format is cell-based. The note with it: Rattus norvegicus, PC-12, serum starvation-induced apoptosis, PC12 cells; for viability at 1 µM: 1 μM compound, vehicle 55.04 ± 8.99, read-out: % Viability 1 μM; for viability at 3 µM: 3 μM compound, read-out: % Viability 3 μM; for viability at 10 µM: 10 μM compound, read-out: % Viability 10 μM; for viability at 30 µM: 30 μM compound, read-out: % Viability 30 μM.

With `CC(Cl)OC(=O)Nc1ccc(NCc2ccc(F)cc2)nc1N` (stereo not drawn) [NK-21-1, 1-chloroethyl 6-(4-fluorobenzylamino)-2-aminopyridin-3-ylcarbamate], in the series on PC12 cells [1], the viability at 1 µM was found to be 69.5 ± 13.2%, the viability at 3 µM stood at 88.9 ± 21.5%, the viability at 10 µM came to 84.3 ± 32.2% and the viability at 30 µM worked out at 84.8 ± 33.7%. In the series with PC12 cells [2], the viability at 1 µM was determined as 74.2 ± 11.5%, the viability at 3 µM is 75.6 ± 13.4%, the viability at 10 µM came out at 91.7 ± 6.31% and the viability at 30 µM stood at 84 ± 13.8%.

As to `Nc1ccc(N(Cc2ccc(F)cc2)C(=O)OCc2ccccc2)cc1N` [NK-22-6], in the series with PC12 cells [1], the viability at 1 µM worked out at 69.1 ± 20.1%, the viability at 3 µM was determined as 100 ± 5.4%, the viability at 10 µM was 98.9 ± 7.93% and the viability at 30 µM is 78.6 ± 23%. In the series on PC12 cells [2], the viability at 1 µM amounted to 68.1 ± 8.86%, the viability at 3 µM was determined as 82.5 ± 10.5%, the viability at 10 µM amounted to 74.5 ± 8.48% and the viability at 30 µM worked out at 37.4 ± 4.98%.

As for `CCCOC(=O)Nc1ccc(NCc2ccc(F)cc2)cc1N` [NK-30-2, Propyl (2-amino-4-((4-fluorobenzyl)amino)phenyl)carbamate], in the series on PC12 cells [1], the viability at 1 µM came out at 54.1 ± 9.34%, the viability at 3 µM stood at 55.6 ± 7.41%, the viability at 10 µM is 61.6 ± 4.82% and the viability at 30 µM was 61.6 ± 18.1%. In the series with PC12 cells [2], the viability at 1 µM was 70.4 ± 3.39%, the viability at 3 µM amounted to 78.3 ± 7.18%, the viability at 10 µM was 84.6 ± 4.75% and the viability at 30 µM is 76.2 ± 1.61%.

Turning to `CCOC(=O)Nc1ccc(NCc2ccc(F)cc2F)nc1N` [NK-64-3, Ethyl (2-amino-6-((2,4-difluorobenzyl)amino)pyridin-3-yl)carbamate], in the series on PC12 cells [1], the viability at 0.1 µM was found to be 84 ± 21.9%, the viability at 0.3 µM turned out to be 93 ± 14.1%, the viability at 1 µM was found to be 91 ± 19.8% and the viability at 3 µM amounted to 78 ± 16.8%. In the series with PC12 cells [1], the viability at 10 µM came to 89.2 ± 4.4% and the viability at 30 µM was found to be 90.7 ± 12.7%.

As for `CCOC(=O)Nc1ccc(NCc2ccc(C)cc2C)nc1N` [NK-65-3, Ethyl (2-amino-6-((2,4-dimethylbenzyl)amino)pyridin-3-yl)carbamate], in the series on PC12 cells [1], the viability at 0.1 µM worked out at 55.5 ± 11.3%, the viability at 0.3 µM came out at 56.9 ± 18.4%, the viability at 1 µM is 61.8 ± 9.82% and the viability at 3 µM worked out at 87.9 ± 11.4%. Also, in the series on PC12 cells [1], the viability at 10 µM was found to be 85.7 ± 13.2% and the viability at 30 µM amounted to 65.7 ± 19%.

Regarding `CCOC(=O)Nc1ccc(NCc2cccc(C)c2)nc1N` [NK-66-3, Ethyl (2-amino-6-((3-methylbenzyl)amino)pyridin-3-yl)carbamate], in the series on PC12 cells [1], the viability at 0.1 µM was determined as 94.7 ± 25.8%, the viability at 0.3 µM worked out at 110 ± 11.3%, the viability at 1 µM was found to be 101 ± 17.4% and the viability at 3 µM turned out to be 82.3 ± 31.4%. For the same compound, in the series with PC12 cells [1], the viability at 10 µM is 86.1 ± 26.9% and the viability at 30 µM was determined as 107 ± 9.4%.

On to `CCOC(=O)Nc1ccc(NCc2cccc(OC)c2)nc1N` [NK-67-3, Ethyl (2-amino-6-((3-methoxybenzyl)amino)pyridin-3-yl)carbamate], for which, in the series with PC12 cells [1], the viability at 0.1 µM worked out at 59.2 ± 3.98%, the viability at 0.3 µM came to 48.6 ± 9.49%, the viability at 1 µM was found to be 82.8 ± 19.8% and the viability at 3 µM was 87.5 ± 15%. Also, in the series with PC12 cells [1], the viability at 10 µM was found to be 70.1 ± 3.36% and the viability at 30 µM came out at 63.8 ± 14%.

As for “Ethyl (6-((4-fluorobenzyl)amino)-4-methylpyridin-3-yl)carbamate [NK-48-3]”, in the series on PC12 cells [1], the “% Viability 0.1 μM” value is given as 54.78 ± 2.77%, the “% Viability 0.3 μM” value amounted to 57.46 ± 4.02%, the “% Viability 1 μM” value turned out to be 57.03 ± 1.81% and the “% Viability 3 μM” value worked out at 53.80 ± 1.98%. Also, in the series on PC12 cells [1], the “% Viability 10 μM” value came to 57.06 ± 4.28% and the “% Viability 30 μM” value was found to be 63.25 ± 3.32%.

In the case of “Hexyl (2-amino-6-((4-fluorobenzyl)amino)pyridin-3-yl)carbamate [NK-42-1]”, in the series on PC12 cells [1], the “% Viability 0.1 μM” value is 60.08 ± 3.34%, the “% Viability 0.3 μM” value is recorded as 59.19 ± 4.95%, the “% Viability 1 μM” value came out at 87.30 ± 18.26% and the “% Viability 3 μM” value is listed as 78.46 ± 11.29%. Also, in the series with PC12 cells [1], the “% Viability 10 μM” value stood at 85.14 ± 11.29% and the “% Viability 30 μM” value is on record as 78.95 ± 13.17%.
